Legend:
[1] = target: T1, Human δ-opioid (DOP) (Homo sapiens, UniProt P41143); experiment: Radioligand binding, human δ-opioid (DOP) membranes, FlashPlate, [3H]-Bremazocine; conditions: compound at 10 μM; [3H]-Bremazocine
T1 construct: purchased Perkin Elmer Biosignal
Method in brief: (§1)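 Cloned human receptor membranes were coated onto FlashPlate wells and incubated with radioligand and compound (added from a 0.5 mM DMSO daughter plate) for 1 hour at room temperature in the dark. Scintillation counting gave percent inhibition, with DMSO defining total and reference ligand defining non-specific binding.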

[2] = target: T2, Human κ-Opioid (KOP) (Homo sapiens, UniProt P41145); experiment: Radioligand binding, human κ-opioid (KOP) membranes, filtration, [3H]-Diprenorphine; conditions: compound at 10 μM; [3H]-Diprenorphine
T2 construct: purchased Perkin Elmer Biosignal
Method in brief: (§2)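 Percent inhibition of radioligand binding measured on recombinant human membranes: NK1 with [125I]-Substance P, KOP with [3H]-Diprenorphine. Incubation 1 h at room temperature, then harvest onto 0.3% PEI-soaked filters, cold Tris-HCl pH 7.4 washes and scintillation counting; non-specific binding from reference ligand wells.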

[3] = target: T3, Human Melanocortin (MC3) (Homo sapiens, UniProt P41968); experiment: Radioligand binding, human melanocortin MC3 membranes, FlashPlate, [125I]-NDP-αMSH; conditions: compound at 10 μM; [125I]-NDP-αMSH
T3 construct: purchased Perkin Elmer Biosignal
Method in brief: as §1

[4] = target: T4, Human Melanocortin (MC4) (Homo sapiens, UniProt P32245); experiment: Radioligand binding, human melanocortin MC4 membranes, FlashPlate, [125I]-NDP-αMSH; conditions: compound at 10 μM; [125I]-NDP-αMSH
T4 construct: purchased Perkin Elmer Biosignal
Method in brief: as §1

[5] = target: T5, Human melanocortin (MC5) (Homo sapiens, UniProt P33032); experiment: Radioligand binding, human melanocortin MC5 membranes, FlashPlate, [125I]-NDP-αMSH; conditions: compound at 10 μM; [125I]-NDP-αMSH
T5 construct: purchased Perkin Elmer Biosignal
Method in brief: as §1

[6] = target: T6, Human melanin-concentrating hormone (MCH1) (Homo sapiens, UniProt Q99705); experiment: Radioligand binding, human melanin-concentrating hormone MCH1 membranes, FlashPlate, [125I]-S36057; conditions: compound at 10 μM; [125I]-S36057
T6 construct: purchased Perkin Elmer Biosignal
Method in brief: as §1

[7] = target: T7, Human μ-opioid (MOP) (Homo sapiens, UniProt P35372); experiment: Radioligand binding, human μ-opioid (MOP) membranes, FlashPlate, [3H]-Naloxone; conditions: compound at 10 μM; [3H]-Naloxone
T7 construct: purchased Perkin Elmer Biosignal
Method in brief: as §1

[8] = target: T8, Human neurokinin (NK1) (Homo sapiens, UniProt P25103); experiment: Radioligand binding, human neurokinin NK1 membranes, filtration, [125I]-Substance P; conditions: compound at 10 μM; [125I]-Substance P
T8 construct: purchased Perkin Elmer Biosignal
Method in brief: as §2

[9] = target: T9, Human neuropeptide Y (NPY-Y1) (Homo sapiens, UniProt P25929); experiment: Radioligand binding, human neuropeptide Y NPY-Y1 membranes, FlashPlate, [125I]-PYY; conditions: compound at 10 μM; [125I]-PYY
T9 construct: purchased Perkin Elmer Biosignal
T9 sequence (P25929 1-384): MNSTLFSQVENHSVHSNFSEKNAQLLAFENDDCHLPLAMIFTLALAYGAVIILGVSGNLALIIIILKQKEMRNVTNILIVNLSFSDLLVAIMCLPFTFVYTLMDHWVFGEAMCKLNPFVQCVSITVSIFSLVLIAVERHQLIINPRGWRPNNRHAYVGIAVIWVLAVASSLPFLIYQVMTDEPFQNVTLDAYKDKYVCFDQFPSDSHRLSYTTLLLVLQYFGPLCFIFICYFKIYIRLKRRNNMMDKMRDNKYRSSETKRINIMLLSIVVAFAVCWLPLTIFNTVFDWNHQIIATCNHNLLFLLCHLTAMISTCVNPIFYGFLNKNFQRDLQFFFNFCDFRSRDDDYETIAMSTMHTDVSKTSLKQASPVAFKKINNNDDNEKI
Method in brief: as §1

[10] = target: T10, Human opioid (ORL1) (Homo sapiens, UniProt P41146); experiment: Radioligand binding, human opioid ORL1 membranes, FlashPlate, [125I]-Nociceptin; conditions: compound at 10 μM; [125I]-Nociceptin
T10 construct: purchased Perkin Elmer Biosignal
Method in brief: as §1

[11] = target: T11, Mouse urotensin (mUR2) (Mus musculus, UniProt Q8VIH9); experiment: Radioligand binding, mouse urotensin mUR2 membranes, FlashPlate, [125I]-Urotensin II; conditions: compound at 10 μM; [125I]-Urotensin II
T11 construct: purchased Perkin Elmer Biosignal
T11 sequence (Q8VIH9 1-385): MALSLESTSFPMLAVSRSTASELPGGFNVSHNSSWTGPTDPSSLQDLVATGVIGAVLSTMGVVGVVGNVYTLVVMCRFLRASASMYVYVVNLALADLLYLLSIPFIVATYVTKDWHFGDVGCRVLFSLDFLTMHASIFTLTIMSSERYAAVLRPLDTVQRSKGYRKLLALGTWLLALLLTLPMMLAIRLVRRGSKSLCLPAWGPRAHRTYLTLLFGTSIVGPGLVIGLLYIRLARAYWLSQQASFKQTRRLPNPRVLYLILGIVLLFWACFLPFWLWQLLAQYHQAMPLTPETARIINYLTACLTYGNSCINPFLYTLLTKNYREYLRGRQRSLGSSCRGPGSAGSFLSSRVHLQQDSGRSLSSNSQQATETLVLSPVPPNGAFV
Method in brief: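 Cloned mouse urotensin (mUR2) receptor membranes from Perkin Elmer Biosignal were immobilized in FlashPlate microplates using a proprietary coating. Each well got 19.5 μl buffer, then 0.5 μl of DMSO, reference ligand, or compound. Adding 5 μl of [125I]-Urotensin II, diluted to 5× final concentration in binding buffer, started binding. Plates were sealed with TopSeal-A and incubated 1 hour at room temperature in the dark. Wells were counted for 30 seconds each on a TopCount after a 60-second delay, and percentage inhibition was calculated.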

T2 sequence (P41145 whole entry): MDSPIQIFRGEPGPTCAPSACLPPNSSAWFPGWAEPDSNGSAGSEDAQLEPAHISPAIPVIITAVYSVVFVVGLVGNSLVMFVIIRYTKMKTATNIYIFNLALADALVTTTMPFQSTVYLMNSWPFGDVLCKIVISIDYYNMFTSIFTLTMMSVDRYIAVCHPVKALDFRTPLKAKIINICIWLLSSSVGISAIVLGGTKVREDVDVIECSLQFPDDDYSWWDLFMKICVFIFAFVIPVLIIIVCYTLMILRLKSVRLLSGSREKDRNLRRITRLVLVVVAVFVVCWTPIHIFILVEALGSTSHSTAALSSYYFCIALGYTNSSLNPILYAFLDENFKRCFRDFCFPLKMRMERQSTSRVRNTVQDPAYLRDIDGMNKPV
T8 sequence (P25103 whole entry): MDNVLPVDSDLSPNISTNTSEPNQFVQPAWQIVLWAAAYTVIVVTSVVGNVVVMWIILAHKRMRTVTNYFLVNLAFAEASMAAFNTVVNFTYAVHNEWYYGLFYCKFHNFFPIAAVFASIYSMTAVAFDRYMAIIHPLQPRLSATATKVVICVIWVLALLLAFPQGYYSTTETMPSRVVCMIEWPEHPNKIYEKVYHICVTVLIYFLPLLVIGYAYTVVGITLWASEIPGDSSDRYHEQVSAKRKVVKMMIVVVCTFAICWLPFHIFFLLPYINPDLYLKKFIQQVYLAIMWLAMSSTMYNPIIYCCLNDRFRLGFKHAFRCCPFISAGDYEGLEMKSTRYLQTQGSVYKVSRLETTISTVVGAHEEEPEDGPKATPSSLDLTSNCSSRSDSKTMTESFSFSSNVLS
T5 sequence (P33032 whole entry): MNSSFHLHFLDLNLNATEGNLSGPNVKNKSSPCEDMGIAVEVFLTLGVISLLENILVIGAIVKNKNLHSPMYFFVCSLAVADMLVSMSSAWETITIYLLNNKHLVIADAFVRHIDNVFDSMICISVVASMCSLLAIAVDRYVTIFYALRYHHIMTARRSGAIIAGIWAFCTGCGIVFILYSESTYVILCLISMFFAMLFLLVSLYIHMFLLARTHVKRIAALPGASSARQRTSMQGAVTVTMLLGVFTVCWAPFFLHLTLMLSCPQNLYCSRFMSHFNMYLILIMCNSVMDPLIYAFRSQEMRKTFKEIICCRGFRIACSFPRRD
T1 sequence (P41143 whole entry): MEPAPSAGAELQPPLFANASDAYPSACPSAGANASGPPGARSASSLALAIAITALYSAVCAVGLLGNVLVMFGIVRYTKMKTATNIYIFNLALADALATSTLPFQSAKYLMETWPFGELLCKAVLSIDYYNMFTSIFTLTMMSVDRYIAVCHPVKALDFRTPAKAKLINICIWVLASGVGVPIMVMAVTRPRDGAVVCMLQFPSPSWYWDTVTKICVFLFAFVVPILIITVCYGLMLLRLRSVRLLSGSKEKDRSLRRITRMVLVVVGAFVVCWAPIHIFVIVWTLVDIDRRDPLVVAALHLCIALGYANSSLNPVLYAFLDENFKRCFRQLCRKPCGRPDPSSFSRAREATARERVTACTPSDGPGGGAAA
T6 sequence (Q99705 whole entry): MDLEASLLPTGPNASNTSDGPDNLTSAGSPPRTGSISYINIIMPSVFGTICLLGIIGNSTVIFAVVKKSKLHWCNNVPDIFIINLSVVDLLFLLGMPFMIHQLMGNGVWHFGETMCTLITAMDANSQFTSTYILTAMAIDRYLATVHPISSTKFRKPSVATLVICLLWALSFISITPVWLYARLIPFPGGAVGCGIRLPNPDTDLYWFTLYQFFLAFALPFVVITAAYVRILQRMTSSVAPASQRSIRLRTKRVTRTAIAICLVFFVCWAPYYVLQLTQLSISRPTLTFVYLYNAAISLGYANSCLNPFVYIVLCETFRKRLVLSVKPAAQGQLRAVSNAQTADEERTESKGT
T7 sequence (P35372 whole entry): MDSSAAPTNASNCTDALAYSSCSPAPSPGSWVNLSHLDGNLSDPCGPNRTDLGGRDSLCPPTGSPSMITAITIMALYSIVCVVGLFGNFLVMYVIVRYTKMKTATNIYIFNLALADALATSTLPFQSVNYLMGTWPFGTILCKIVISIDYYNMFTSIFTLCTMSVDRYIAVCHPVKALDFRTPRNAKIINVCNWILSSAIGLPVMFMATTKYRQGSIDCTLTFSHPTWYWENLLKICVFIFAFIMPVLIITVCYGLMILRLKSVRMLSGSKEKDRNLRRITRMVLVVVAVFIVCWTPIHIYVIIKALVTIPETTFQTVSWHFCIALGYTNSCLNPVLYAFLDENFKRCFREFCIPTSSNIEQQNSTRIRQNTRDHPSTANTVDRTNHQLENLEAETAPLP
T10 sequence (P41146 whole entry): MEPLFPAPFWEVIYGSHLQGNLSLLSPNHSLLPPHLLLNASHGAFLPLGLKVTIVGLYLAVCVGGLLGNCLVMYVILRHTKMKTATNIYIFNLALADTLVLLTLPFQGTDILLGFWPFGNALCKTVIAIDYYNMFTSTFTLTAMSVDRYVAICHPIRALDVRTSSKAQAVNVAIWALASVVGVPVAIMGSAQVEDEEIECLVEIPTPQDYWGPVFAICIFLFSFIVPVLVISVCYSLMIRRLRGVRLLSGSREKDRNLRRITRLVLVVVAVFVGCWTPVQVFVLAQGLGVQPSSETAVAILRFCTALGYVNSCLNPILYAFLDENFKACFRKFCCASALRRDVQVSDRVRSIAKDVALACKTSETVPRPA
T3 sequence (P41968 whole entry): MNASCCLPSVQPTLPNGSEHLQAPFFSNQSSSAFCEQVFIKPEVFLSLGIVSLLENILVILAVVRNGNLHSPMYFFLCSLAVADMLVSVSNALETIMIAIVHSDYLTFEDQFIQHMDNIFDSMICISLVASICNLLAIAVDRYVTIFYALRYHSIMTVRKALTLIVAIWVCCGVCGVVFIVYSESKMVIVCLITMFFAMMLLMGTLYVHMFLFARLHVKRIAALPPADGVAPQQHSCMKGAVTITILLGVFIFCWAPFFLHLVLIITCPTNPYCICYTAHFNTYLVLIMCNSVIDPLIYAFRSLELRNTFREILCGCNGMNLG
T4 sequence (P32245 whole entry): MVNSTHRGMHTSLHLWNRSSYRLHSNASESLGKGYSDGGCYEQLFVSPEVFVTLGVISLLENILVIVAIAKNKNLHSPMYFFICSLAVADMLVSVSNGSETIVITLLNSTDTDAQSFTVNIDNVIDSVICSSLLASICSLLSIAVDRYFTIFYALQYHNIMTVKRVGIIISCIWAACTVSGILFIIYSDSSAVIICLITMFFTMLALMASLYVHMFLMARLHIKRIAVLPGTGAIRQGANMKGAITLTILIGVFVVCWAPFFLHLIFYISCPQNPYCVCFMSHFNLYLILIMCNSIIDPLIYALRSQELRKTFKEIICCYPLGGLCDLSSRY

Compound | A1: inhibition of radioligand binding, human δ-opioid (DOP) [1] | A2: inhibition of radioligand binding, human κ-opioid (KOP) [2] | A3: inhibition of radioligand binding, human melanocortin (MC3) [3] | A4: inhibition of radioligand binding, human melanocortin (MC4) [4] | A5: inhibition of radioligand binding, human melanocortin (MC5) [5] | A6: inhibition of radioligand binding, human melanin-concentrating hormone (MCH1) [6] | A7: inhibition of radioligand binding, human μ-opioid (MOP) [7] | A8: inhibition of radioligand binding, human neurokinin (NK1) [8] | A9: inhibition of radioligand binding, human neuropeptide Y (NPY-Y1) [9] | A10: inhibition of radioligand binding, human opioid (ORL1) [10] | A11: inhibition of radioligand binding, mouse urotensin (mUR2) [11]
NCCC(=O)NC1C(OCc2ccccc2)OC(COCc2ccc3ccccc3c2)C(O)C1OCc1ccc2ccccc2c1 (stereo not shown) [compound 366] | − (“−” indicates less than 50% inhibition at 10 μM) | − (“−” indicates less than 50% inhibition at 10 μM) | + (“+” indicates greater than 50% inhibition at 10 μM) | + (“+” indicates greater than 50% inhibition at 10 μM) | + (“+” indicates greater than 50% inhibition at 10 μM) | − (“−” indicates less than 50% inhibition at 10 μM) | − (“−” indicates less than 50% inhibition at 10 μM) | + (“+” indicates greater than 50% inhibition at 10 μM) | − (“−” indicates less than 50% inhibition at 10 μM) | − (“−” indicates less than 50% inhibition at 10 μM) | − (“−” indicates less than 50% inhibition at 10 μM)
NCCC(=O)NC1C(OCc2ccccc2)OC(COCc2ccccc2)C(O)C1OCc1ccc2ccccc2c1 (stereo not shown) [compound 367] | − (“−” indicates less than 50% inhibition at 10 μM) | − (“−” indicates less than 50% inhibition at 10 μM) | − (“−” indicates less than 50% inhibition at 10 μM) | + (“+” indicates greater than 50% inhibition at 10 μM) | + (“+” indicates greater than 50% inhibition at 10 μM) | − (“−” indicates less than 50% inhibition at 10 μM) | − (“−” indicates less than 50% inhibition at 10 μM) | + (“+” indicates greater than 50% inhibition at 10 μM) | − (“−” indicates less than 50% inhibition at 10 μM) | − (“−” indicates less than 50% inhibition at 10 μM) | − (“−” indicates less than 50% inhibition at 10 μM)
NCCC(=O)NC1C(OCc2ccccc2)OC(COCc2ccc(Cl)cc2)C(O)C1OCc1ccc2ccccc2c1 (stereo not shown) [compound 368] | − (“−” indicates less than 50% inhibition at 10 μM) | − (“−” indicates less than 50% inhibition at 10 μM) | + (“+” indicates greater than 50% inhibition at 10 μM) | + (“+” indicates greater than 50% inhibition at 10 μM) | + (“+” indicates greater than 50% inhibition at 10 μM) | − (“−” indicates less than 50% inhibition at 10 μM) | − (“−” indicates less than 50% inhibition at 10 μM) | + (“+” indicates greater than 50% inhibition at 10 μM) | − (“−” indicates less than 50% inhibition at 10 μM) | − (“−” indicates less than 50% inhibition at 10 μM) | − (“−” indicates less than 50% inhibition at 10 μM)
NCCC(=O)NC1C(OCc2ccccc2)OC(COCc2ccc3ccccc3c2)C(O)C1OCc1ccccc1 (stereo not shown) [compound 369] | − (“−” indicates less than 50% inhibition at 10 μM) | − (“−” indicates less than 50% inhibition at 10 μM) | − (“−” indicates less than 50% inhibition at 10 μM) | + (“+” indicates greater than 50% inhibition at 10 μM) | − (“−” indicates less than 50% inhibition at 10 μM) | − (“−” indicates less than 50% inhibition at 10 μM) | − (“−” indicates less than 50% inhibition at 10 μM) | + (“+” indicates greater than 50% inhibition at 10 μM) | − (“−” indicates less than 50% inhibition at 10 μM) | − (“−” indicates less than 50% inhibition at 10 μM) | − (“−” indicates less than 50% inhibition at 10 μM)
NCCC(=O)NC1C(OCc2ccccc2)OC(COCc2ccccc2)C(O)C1OCc1ccccc1 (stereo not shown) [compound 370] | − (“−” indicates less than 50% inhibition at 10 μM) | − (“−” indicates less than 50% inhibition at 10 μM) | − (“−” indicates less than 50% inhibition at 10 μM) | − (“−” indicates less than 50% inhibition at 10 μM) | − (“−” indicates less than 50% inhibition at 10 μM) | − (“−” indicates less than 50% inhibition at 10 μM) | − (“−” indicates less than 50% inhibition at 10 μM) | + (“+” indicates greater than 50% inhibition at 10 μM) | − (“−” indicates less than 50% inhibition at 10 μM) | − (“−” indicates less than 50% inhibition at 10 μM) | − (“−” indicates less than 50% inhibition at 10 μM)

Source: patent US20080009418A1, “Selective Inhibitors” (Alchemia LTD., priority 2004, published 2008)
